We go through ten compounds from patent publication EP4740948A1 (Dong Wha Pharm. Co., Ltd., priority 2023, dated 2025).

Structures are written as SMILES.

One test has as its target EZH1 (Homo sapiens, UniProt Q92800). The test can be described thus: AlphaLISA enzyme activity inhibition, EZH1. It is filed as biochemical. Particulars: for inhibition at 0.01 µM: 10nM test substance. The method, then: (§1) In order to confirm the EZH1 and/or EZH2 activity inhibitory effect of the 1,3-benzodioxole derivative compounds represented by chemical formula I of the present invention, the activity was measured using an AlphaLISA test method. The test substance dissolved in dimethylsulfoxide (DMSO) was diluted in a test solution (20 mM Tris pH 8.0, 0.1% BSA, 0.01% Triton X-100, 0.5 mM DTT) according to a final treatment concentration (5 nM or 10 nM) and mixed with EZH1 and EZH2, respectively, and then histone H3 peptide and S-adenosylmethionine (SAM) were added to initiate an enzyme reaction. An acceptor bead was added thereto after reaction for two hours and subjected to an additional reaction for one hour, after which a donor bead was added thereto. After an additional reaction for 30 minutes, the reaction was completed. An activity was measured using the Magellan program on a Spark10M instrument. DMSO was used as a control group, an inhibition rate of enzyme activity was calculated using a following equation, and the results thereof are shown in Table 1 below. [formula]
(In Alpha technology, singlet oxygen from a donor bead excites a nearby acceptor bead.)

The next test addresses EZH2 (Homo sapiens, UniProt Q15910). The test can be described thus: AlphaLISA enzyme activity inhibition, EZH2. The class given is biochemical. Particulars: for inhibition at 0.01 µM: 10nM test substance. The method, then: as §1
Another test has as its system Lovo cells. Put plainly: Cancer cell proliferation inhibition (Cell Counting Kit-8), colorectal cancer cell line. It is filed as cell-based. Particulars: 1000 nM, cultured seven to 11 days; for inhibition at 1 µM: Homo sapiens, LoVo, 264 h, read-out: % inhibition rate LoVo. The procedure, abridged: (§2)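 Single-concentration test: 1000 nM compound, 7-11 day culture after seeding 100 to 1,000 cells per well in 10% FBS medium. Percent inhibition derived from Cell Counting Kit-8 signal relative to untreated control.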
On the technique in general: Tetrazolium dyes change colour on reduction, which living cells bring about.

The test system of the next test is G401 cells. The test can be described thus: Cancer cell proliferation inhibition (Cell Counting Kit-8), rhabdoid tumor cell line. The class given is cell-based. Particulars: 1000 nM, cultured seven to 11 days; for inhibition at 1 µM: Homo sapiens, G-401, 264 h, read-out: % inhibition rate G401; for % inhibition rate G401: 1 µM. In short, it runs like this: (§3)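 Single 1000 nM dose of test substance, applied to cells seeded at 100–1,000 per well in 10% FBS medium, then culture for seven to 11 days. CCK-8 read-out; inhibition rate expressed as percent relative to untreated control.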

The next test concerns MKN-45 cells. The test can be described thus: Cancer cell proliferation inhibition (Cell Counting Kit-8), gastric cancer cell line. It is filed as cell-based. Particulars: 1000 nM, cultured seven to 11 days; for inhibition at 1 µM: Homo sapiens, MKN-45, 264 h, read-out: % inhibition rate MKN -45. The procedure, abridged:
as §3

The next test has as its system SW-13 cells. The test can be described thus: Cancer cell proliferation inhibition (Cell Counting Kit-8), adrenal cancer cell line. It is filed as cell-based. Particulars: 1000 nM, cultured seven to 11 days; for inhibition at 1 µM: Homo sapiens, SW13, 264 h, read-out: % inhibition rate SW-13. The procedure, abridged:
as §2

Another test relates to MIA-PaCa-2 cells. Put plainly: Cancer cell proliferation inhibition (Cell Counting Kit-8), pancreatic cancer cell line. The class given is cell-based. Particulars: 1000 nM, cultured seven to 11 days; for inhibition at 1 µM: Homo sapiens, MIA PaCa-2, 264 h, read-out: % inhibition rate MIA-Paca2. The procedure, abridged: as §2
The next test has as its system NCI-H1299 cells. Put plainly: Cancer cell proliferation inhibition (Cell Counting Kit-8), lung cancer cell line. It is filed as cell-based. Particulars: 1000 nM, cultured seven to 11 days; for inhibition at 1 µM: Homo sapiens, NCI-H1299, 264 h, read-out: % inhibition rate NCI-H129 9. The procedure, abridged:
as §2

EZH2, sequence (Q15910 whole entry, species assumed): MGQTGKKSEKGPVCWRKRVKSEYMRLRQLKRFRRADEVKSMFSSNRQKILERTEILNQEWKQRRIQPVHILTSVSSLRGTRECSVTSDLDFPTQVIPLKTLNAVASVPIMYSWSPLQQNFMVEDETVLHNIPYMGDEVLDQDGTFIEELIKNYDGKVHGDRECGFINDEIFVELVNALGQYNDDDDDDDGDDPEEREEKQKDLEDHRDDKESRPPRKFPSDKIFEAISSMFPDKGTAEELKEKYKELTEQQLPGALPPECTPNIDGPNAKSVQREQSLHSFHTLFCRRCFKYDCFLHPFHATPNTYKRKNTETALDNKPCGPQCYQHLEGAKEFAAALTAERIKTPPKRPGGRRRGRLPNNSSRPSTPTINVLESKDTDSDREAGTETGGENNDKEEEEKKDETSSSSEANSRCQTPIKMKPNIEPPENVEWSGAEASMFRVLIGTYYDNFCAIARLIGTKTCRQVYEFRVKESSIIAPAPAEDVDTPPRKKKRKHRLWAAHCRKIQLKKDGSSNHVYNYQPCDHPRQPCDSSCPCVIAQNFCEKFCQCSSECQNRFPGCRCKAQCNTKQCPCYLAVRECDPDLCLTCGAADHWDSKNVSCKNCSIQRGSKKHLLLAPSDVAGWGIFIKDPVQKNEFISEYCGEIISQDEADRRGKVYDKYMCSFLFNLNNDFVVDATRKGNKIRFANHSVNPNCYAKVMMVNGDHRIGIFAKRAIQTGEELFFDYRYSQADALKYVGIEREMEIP
EZH2, sequence (O75530 whole entry partner, species assumed): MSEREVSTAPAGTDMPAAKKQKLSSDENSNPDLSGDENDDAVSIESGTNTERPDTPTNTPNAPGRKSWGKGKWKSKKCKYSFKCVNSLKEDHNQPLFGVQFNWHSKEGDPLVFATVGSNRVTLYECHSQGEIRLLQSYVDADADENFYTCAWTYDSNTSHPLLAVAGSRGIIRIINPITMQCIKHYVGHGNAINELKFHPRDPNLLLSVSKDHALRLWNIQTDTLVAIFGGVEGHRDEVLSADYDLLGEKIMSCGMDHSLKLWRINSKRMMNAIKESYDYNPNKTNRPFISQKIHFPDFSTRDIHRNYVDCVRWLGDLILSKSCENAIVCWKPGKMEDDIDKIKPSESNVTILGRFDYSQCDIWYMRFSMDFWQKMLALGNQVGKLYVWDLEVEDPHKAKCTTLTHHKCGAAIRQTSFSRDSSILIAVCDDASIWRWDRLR
EZH2, sequence (Q15022 whole entry partner, species assumed): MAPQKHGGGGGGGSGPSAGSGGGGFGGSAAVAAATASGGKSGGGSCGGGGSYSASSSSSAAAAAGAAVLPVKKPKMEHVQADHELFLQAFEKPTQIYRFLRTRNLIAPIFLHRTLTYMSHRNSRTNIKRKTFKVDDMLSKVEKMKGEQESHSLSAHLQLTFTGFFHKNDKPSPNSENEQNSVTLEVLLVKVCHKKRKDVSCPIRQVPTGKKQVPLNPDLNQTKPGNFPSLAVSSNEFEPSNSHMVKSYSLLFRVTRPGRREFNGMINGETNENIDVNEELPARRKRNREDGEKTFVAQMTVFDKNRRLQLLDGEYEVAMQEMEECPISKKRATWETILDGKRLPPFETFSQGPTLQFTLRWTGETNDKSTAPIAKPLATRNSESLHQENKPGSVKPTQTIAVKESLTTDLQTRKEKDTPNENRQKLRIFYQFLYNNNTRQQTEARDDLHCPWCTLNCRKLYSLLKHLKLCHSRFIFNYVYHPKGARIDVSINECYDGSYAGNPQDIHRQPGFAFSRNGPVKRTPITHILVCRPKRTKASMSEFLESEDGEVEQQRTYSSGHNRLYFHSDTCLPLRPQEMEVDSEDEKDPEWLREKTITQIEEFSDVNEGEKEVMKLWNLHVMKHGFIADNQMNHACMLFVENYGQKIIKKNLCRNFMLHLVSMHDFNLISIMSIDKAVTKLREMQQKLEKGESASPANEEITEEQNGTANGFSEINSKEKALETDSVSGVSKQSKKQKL
EZH1, sequence (Q92800 whole entry, species assumed): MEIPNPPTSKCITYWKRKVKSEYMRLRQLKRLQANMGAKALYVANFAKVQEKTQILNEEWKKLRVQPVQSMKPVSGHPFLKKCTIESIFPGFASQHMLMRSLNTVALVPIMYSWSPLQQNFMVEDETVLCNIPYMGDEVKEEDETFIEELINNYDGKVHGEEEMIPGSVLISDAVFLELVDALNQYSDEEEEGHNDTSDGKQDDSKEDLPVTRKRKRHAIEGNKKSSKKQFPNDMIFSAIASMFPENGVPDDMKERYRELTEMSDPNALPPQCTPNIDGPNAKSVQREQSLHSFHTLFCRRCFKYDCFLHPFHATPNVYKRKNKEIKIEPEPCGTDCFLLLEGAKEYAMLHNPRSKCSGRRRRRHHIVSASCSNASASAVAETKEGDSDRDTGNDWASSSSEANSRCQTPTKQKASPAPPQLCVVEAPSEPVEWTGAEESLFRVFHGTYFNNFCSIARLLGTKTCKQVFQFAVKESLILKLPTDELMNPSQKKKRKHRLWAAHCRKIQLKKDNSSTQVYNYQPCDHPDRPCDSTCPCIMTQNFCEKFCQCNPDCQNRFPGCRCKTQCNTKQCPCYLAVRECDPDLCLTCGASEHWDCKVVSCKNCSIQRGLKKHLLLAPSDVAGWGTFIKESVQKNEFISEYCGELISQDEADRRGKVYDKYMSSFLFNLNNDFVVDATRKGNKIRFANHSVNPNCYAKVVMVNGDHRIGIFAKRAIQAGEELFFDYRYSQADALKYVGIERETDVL
EZH1, sequence (O75530 whole entry partner, species assumed): as the sequence (O75530 whole entry partner, species assumed) above
EZH1, sequence (Q15022 whole entry partner, species assumed): as the sequence (Q15022 whole entry partner, species assumed) above

The term inhibition denotes the relative decrease from the control value, in per cent. Take `CSc1cc(C)[nH]c(=O)c1CNC(=O)c1cc(-c2ccc(N3C[C@@H](C)O[C@@H](C)C3)nc2)c2c(c1C)OC(C)([C@H]1CC[C@H](N(C)C3CCCCC3)CC1)O2` (stereo partly drawn) [Compound 114, 2-(trans-4-(cyclohexyl(methyl)amino)cyclohexyl)-7-(6-((2S,6R)-2,6-dimethylmorpholino)pyridin-3-yl)-2,4-dimethyl-N-((6-methyl-4-(methylthio)-2-oxo-1,2-dihydropyridin-3-yl)methyl)benzo[d][1,3]dioxole-5-carboxamide]: the inhibition at 0.005 µM against EZH1 (5nM test substance) is 28.6%; at EZH2 (5nM test substance), 45.8%. Besides, the values for the inhibition at 0.01 µM on EZH1 and against EZH2 were 38.2% and 91.7%, respectively. Also, the inhibition at 1 µM in the test with Lovo cells was not below 70%; with G401 cells, not below 70%; with MKN-45 cells it was not above 30%; in the test with SW-13 cells, 30 to 70%; in the test with MIA-PaCa-2 cells, not above 30%; in the test with NCI-H1299 cells it was not above 30%.
Regarding `COCCN(C)[C@H]1CC[C@H](C2(C)Oc3c(-c4cnc(N(C)C)nc4)cc(C(=O)NCc4c(SC)cc(C)[nH]c4=O)c(C)c3O2)CC1` (relative stereo) [Compound 26, 7-(2-(dimethylamino)pyrimidin-5-yl)-2-(trans-4-((2-methoxyethyl)(methyl)amino)cyclohexyl)-2,4-dimethyl-N-((6-methyl-4-(methylthio)-2-oxo-1,2-dihydropyridin-3-yl)methyl)benzo[d][1,3]dioxole-5-carboxamide], the inhibition at 0.005 µM was found to be 87.3% against EZH1 (5nM test substance) and 99.6% against EZH2 (5nM test substance). Also, the inhibition at 1 µM in the test with Lovo cells was not below 70%; with G401 cells it was 30 to 70%; with MKN-45 cells it was not above 30%; with SW-13 cells, 30 to 70%; in the test with MIA-PaCa-2 cells, not above 30%; in the test with NCI-H1299 cells, not above 30%.
Take `CSc1cc(C)[nH]c(=O)c1CNC(=O)c1cc(-c2ccc(N3C[C@@H](C)O[C@@H](C)C3)nc2)c2c(c1C)OC(C)([C@H]1CC[C@H](N(C)CCCC(F)(F)F)CC1)O2` (stereo partly drawn) [Compound 113]: the inhibition at 0.005 µM at EZH1 (5nM test substance) is 32.5%; against EZH2 (5nM test substance) it was 96.7%. Further, the inhibition at 0.01 µM on EZH1 worked out at 68.8%; against EZH2, 100%. Further, the inhibition at 1 µM in the test with Lovo cells is not below 70%; with G401 cells, not below 70%; in the test on MKN-45 cells, not above 30%; with SW-13 cells, 30 to 70%; in the test with MIA-PaCa-2 cells it was not above 30%; in the test with NCI-H1299 cells, not above 30%.
In the case of `CCN1CCC(C2(C)Oc3c(-c4ccc(N(C)CC)nc4)cc(C(=O)NCc4c(SC)cc(C)[nH]c4=O)c(C)c3O2)CC1` (single isomer, unassigned) [Compound 89, 7-(6-(ethyl(methyl)amino)pyridin-3-yl)-2-(1-ethylpiperidin-4-yl)-2,4-dimethyl-N-((6-methyl-4-(methylthio)-2-oxo-1,2-dihydropyridin-3-yl)methyl)benzo[d][1,3]dioxole-5-carboxamide], the inhibition at 0.005 µM against EZH1 (5nM test substance) amounted to 40%; against EZH2 (5nM test substance), 99.5%. Moreover, the results for the inhibition at 0.01 µM against EZH1 and against EZH2 were 71% and 100%, respectively. The inhibition at 1 µM was not below 70% in the test on Lovo cells; not below 70% with G401 cells; not above 30% in the test on MKN-45 cells; 30 to 70% in the test on SW-13 cells; not above 30% in the test with MIA-PaCa-2 cells; not above 30% with NCI-H1299 cells.
On to `CCCCN(C)c1ncc(-c2cc(C(=O)NCc3c(SC)cc(C)[nH]c3=O)c(C)c3c2OC(C)(C2CCN(CC(F)(F)F)CC2)O3)cn1` (stereo not drawn) [Compound 99], for which the inhibition at 0.005 µM worked out at 37.1% against EZH1 (5nM test substance) and 62.4% at EZH2 (5nM test substance). Further, the figures for the inhibition at 0.01 µM against EZH1 and at EZH2 were 42.9% and 76.5%, respectively. The inhibition at 1 µM is not below 70% with Lovo cells; 30 to 70% in the test with G401 cells; 30 to 70% in the test on MKN-45 cells; 30 to 70% with SW-13 cells; not above 30% in the test with MIA-PaCa-2 cells; not above 30% with NCI-H1299 cells.
`CSc1cc(C)[nH]c(=O)c1CNC(=O)c1cc(-c2ccc(N3C[C@@H](C)O[C@@H](C)C3)nc2)c2c(c1C)OC(C)(C1CCN(CCCC(F)(F)F)CC1)O2` (single isomer, unassigned) [Compound 57]: the inhibition at 0.005 µM worked out at 58.9% against EZH1 (5nM test substance) and 96% at EZH2 (5nM test substance). Moreover, the inhibition at 0.01 µM on EZH1 worked out at 76.2%; against EZH2 it was 99.4%. Further, the “% inhibition rate LoVo” value in the test on Lovo cells (1 µM) is on record as “+++ (+++: ≥70%)”. Further, the “% inhibition rate G401” value in the test on G401 cells is “+++ (+++: ≥70%)”. Besides, the inhibition at 1 µM in the test on MKN-45 cells, in the test on SW-13 cells, in the test with MIA-PaCa-2 cells and with NCI-H1299 cells was 30 to 70% throughout.
With `CSc1cc(C)[nH]c(=O)c1CNC(=O)c1cc(-c2ccc(F)nc2F)c2c(c1C)OC(C)([C@H]1CC[C@H](N(C)C)CC1)O2` (relative stereo) [Compound 14, 7-(2,6-difluoropyridin-3-yl)-2-(trans-4-(dimethylamino)cyclohexyl)-2,4-dimethyl-N-((6-methyl-4-(methylthio)-2-oxo-1,2-dihydropyridin-3-yl)methyl)benzo[d][1,3]dioxole-5-carboxamide], the inhibition at 0.005 µM against EZH1 (5nM test substance) amounted to 86.4%; on EZH2 (5nM test substance), 97.6%. For the same compound, the inhibition at 1 µM with Lovo cells is not below 70%; in the test with G401 cells, 30 to 70%; with MKN-45 cells it was not above 30%; in the test with SW-13 cells it was 30 to 70%; in the test on MIA-PaCa-2 cells, not above 30%; with NCI-H1299 cells it was not above 30%.
`COCCN(C)[C@H]1CC[C@H](C2(C)Oc3c(-c4cnc(N5C[C@@H](C)O[C@@H](C)C5)nc4)cc(C(=O)NCc4c(SC)cc(C)[nH]c4=O)c(C)c3O2)CC1` (stereo partly drawn) [Compound 25, 7-(2-((2S,6R)-2,6-dimethylmorpholino)pyrimidin-5-yl)-2-(trans-4-((2-methoxyethyl)(methyl)amino)cyclohexyl)-2,4-dimethyl-N-((6-methyl-4-(methylthio)-2-oxo-1,2-dihydropyridin-3-yl)methyl)benzo[d][1,3]dioxole-5-carboxamide]: the inhibition at 0.005 µM at EZH1 (5nM test substance) was 82.4%; against EZH2 (5nM test substance), 97.6%. Besides, the inhibition at 1 µM was not below 70% in the test with Lovo cells; 30 to 70% in the test on G401 cells; not above 30% in the test with MKN-45 cells; 30 to 70% in the test on SW-13 cells; not above 30% in the test on MIA-PaCa-2 cells; not above 30% with NCI-H1299 cells.
For `CSc1cc(C)[nH]c(=O)c1CNC(=O)c1cc(-c2ccc(N3CCSCC3)nc2)c2c(c1C)OC(C)(C1CCN(CC(F)(F)F)CC1)O2` (stereo not drawn) [Compound 34, 2,4-dimethyl-N-((6-methyl-4-(methylthio)-2-oxo-1,2-dihydropyridin-3-yl)methyl)-7-(6-thiomorpholinopyridin-3-yl)-2-(1-(2,2,2-trifluoroethyl)piperidin-4-yl)benzo[d][1,3]dioxole-5-carboxamide], the inhibition at 0.005 µM against EZH1 (5nM test substance) is 24.9%; on EZH2 (5nM test substance) it was 41.1%. Also, the inhibition at 1 µM is not below 70% in the test with Lovo cells; 30 to 70% with G401 cells; not above 30% in the test with MKN-45 cells; not above 30% in the test with SW-13 cells; not above 30% with MIA-PaCa-2 cells; not above 30% in the test on NCI-H1299 cells.
Turning to `CSc1cc(C)[nH]c(=O)c1CNC(=O)c1cc(-c2ccc(N3C[C@@H](C)O[C@@H](C)C3)nc2)c2c(c1C)OC(C)([C@H]1CC[C@H](N(C)CC(F)(F)F)CC1)O2` (single isomer, unassigned) [Compound 108], the “Enzyme inhibition % EZH1” value at EZH1 (5nM test substance, 0.005 µM) came out at 20.4%. Also, on EZH2 (5nM test substance, 0.005 µM), the “Enzyme inhibition % EZH2” value worked out at 4.3%. In addition, the “% inhibition rate LoVo” value in the test with Lovo cells is reported as “+++ (+++: ≥70%)”. In addition, in the test on G401 cells, the “% inhibition rate G401” value is “+ (+: ≤30%)”. Besides, the “% inhibition rate MKN -45” value in the test on MKN-45 cells is “+ (+: ≤30%)”. Also, in the test with SW-13 cells, the “% inhibition rate SW-13” value is “+ (+: ≤30%)”. In addition, the “% inhibition rate MIA-Paca2” value in the test on MIA-PaCa-2 cells is “+ (+: ≤30%)”. The “% inhibition rate NCI-H129 9” value in the test on NCI-H1299 cells was “+ (+: ≤30%)”.
